Consider three compounds from publication PMC3261141, “Largazole and Its Derivatives Selectively Inhibit Ubiquitin Activating Enzyme (E1)” (PLoS ONE, 2012).

Structures are written as SMILES. pIC50: −log10 of the molar value.

Assay [1] deals with T1, ubiquitin-activating enzyme E1 (UBA1) (Homo sapiens, UniProt P22314).
T1 construct: recombinant human UBA1, GST tag removed by thrombin
T1 sequence (P22314 2-1058): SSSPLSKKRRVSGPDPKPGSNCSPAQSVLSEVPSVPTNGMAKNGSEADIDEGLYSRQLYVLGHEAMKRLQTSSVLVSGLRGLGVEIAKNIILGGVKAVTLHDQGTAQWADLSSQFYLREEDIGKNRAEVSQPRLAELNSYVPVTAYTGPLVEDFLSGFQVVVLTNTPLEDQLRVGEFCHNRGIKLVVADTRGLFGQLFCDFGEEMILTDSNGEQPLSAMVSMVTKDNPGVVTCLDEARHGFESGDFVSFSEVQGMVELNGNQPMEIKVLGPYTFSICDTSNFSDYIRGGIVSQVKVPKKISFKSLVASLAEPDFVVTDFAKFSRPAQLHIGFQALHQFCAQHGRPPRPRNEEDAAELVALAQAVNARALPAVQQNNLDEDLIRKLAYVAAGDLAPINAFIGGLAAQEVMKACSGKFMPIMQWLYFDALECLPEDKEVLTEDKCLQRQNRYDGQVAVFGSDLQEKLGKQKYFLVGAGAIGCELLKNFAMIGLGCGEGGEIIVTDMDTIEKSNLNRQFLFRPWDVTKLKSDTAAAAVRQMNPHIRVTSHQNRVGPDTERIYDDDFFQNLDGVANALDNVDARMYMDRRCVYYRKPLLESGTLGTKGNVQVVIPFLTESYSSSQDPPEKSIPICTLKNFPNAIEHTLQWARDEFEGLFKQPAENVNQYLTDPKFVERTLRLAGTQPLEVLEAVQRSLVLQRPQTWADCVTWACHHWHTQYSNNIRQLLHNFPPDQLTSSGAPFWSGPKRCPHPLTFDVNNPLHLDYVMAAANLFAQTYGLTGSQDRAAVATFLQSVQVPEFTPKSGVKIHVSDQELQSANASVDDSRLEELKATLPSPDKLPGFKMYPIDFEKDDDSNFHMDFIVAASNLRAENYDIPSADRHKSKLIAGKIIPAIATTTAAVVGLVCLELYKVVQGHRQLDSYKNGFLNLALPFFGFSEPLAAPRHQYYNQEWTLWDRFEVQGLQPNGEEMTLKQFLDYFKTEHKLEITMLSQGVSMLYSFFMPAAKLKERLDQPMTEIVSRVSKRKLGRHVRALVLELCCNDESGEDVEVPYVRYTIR
Kind of assay: E1-ubiquitin thioester gel assay with fluorescein-ubiquitin. In kind it is biochemical.

Assay [2] has as its target T1, ubiquitin-activating enzyme E1 (UBA1). Kind of assay: thioester gel assay; PPi:ATP and AMP:ATP exchange assays. It is filed as biochemical.

Regarding `CCCCCCCC(=O)OCC/C=C/[C@@H]1CC(=O)NCc2nc(cs2)C2=N[C@@](C)(CS2)C(=O)N[C@@H](C(C)C)C(=O)O1` [E, Largazole ester], the pIC50 in assay [1] was around 4.60. The same measure, in the same setting: in the case of `CCCCCCCC(=O)SCC/C=C/[C@@H]1CC(=O)NCc2nc(cs2)C2=N[C@@](C)(CS2)C(=O)N[C@@H](C(C)C)C(=O)O1` [L, Largazole] it was around 4.54.

In turn, `CCCCCCCC(=O)CCC/C=C/[C@@H]1CC(=O)NCc2nc(cs2)C2=N[C@@](C)(CS2)C(=O)N[C@@H](C(C)C)C(=O)O1` [K, Largazole ketone] showed a pIC50 in assay [2] of around 4.52.

For orientation: pIC50 means the IC50 on a negative log10 scale, so that one unit is a factor of ten. A high value points to a low IC50.
